In the assay the test system is L1210 leukemia ip in BDF1 mice, survival T/C. The assay is described as follows: NCI In Vivo Anticancer Drug Screen. Data for tumor model L1210 Leukemia (intraperitoneal) in B6D2F1 (BDF1) mice. The conditions noted are these: endpoint: mean survival time, higher = longer survival. The procedure, abridged:
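Transplantable tumor model; survival measured in treated vs vehicle control mice. Value = treated/control.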

Several values for one entry are separate records, joined by “and”; a condition that tells them apart may be missing. Equal entries are not always repeated. Inconclusive results and toxic doses are left out. Peptide text beside a SMILES is read from it. * marks the point of attachment. Cbz = O=C(OCc1ccccc1)*

For the compound `CCOC(=O)NP(=O)(N1CC1)N1CC1`, the T/C (dose: 0.16 mg/kg/injection, schedule: Q#A X Z (ip), vehicle: saline) was 100 % of control; the T/C (dose: 0.31 mg/kg/injection, schedule: Q#A X Z (ip), vehicle: saline) was 100 % of control; the T/C (dose: 0.32 mg/kg/injection, schedule: Q01DX Z (im), vehicle: saline) is 105 % of control; the T/C (dose: 0.32 mg/kg/injection, schedule: Q01DX Z (ip), vehicle: saline) is 102 % of control; the T/C (dose: 0.62 mg/kg/injection, schedule: Q#A X Z (ip), vehicle: saline) was 102 % of control; the T/C (dose: 0.63 mg/kg/injection, schedule: Q01DX Z (im), vehicle: saline) is 105 % of control. Also, the T/C runs as follows: (dose: 0.63 mg/kg/injection, schedule: Q01DX Z (ip), vehicle: saline) 98 % of control; (dose: 0.7 mg/kg/injection, schedule: Q01DX Z (ip), vehicle: carboxymethylcellulose (CMC)) 101 % of control; (dose: 0.9 mg/kg/injection, schedule: Q03DX006 (ip), vehicle: saline) 104 % of control; (dose: 1.25 mg/kg/injection, schedule: Q01DX Z (im), vehicle: saline) 104 % of control; (dose: 1.25 mg/kg/injection, schedule: Q01DX Z (ip), vehicle: saline) 105 % of control; (dose: 1.25 mg/kg/injection, schedule: Q01DX Z (oral), vehicle: saline) 100 % of control. For the same compound, the T/C (dose: 1.25 mg/kg/injection, schedule: Q#A X Z (ip), vehicle: saline) was 121 % of control; the T/C (dose: 1.5 mg/kg/injection, schedule: Q01DX Z (ip), vehicle: carboxymethylcellulose (CMC)) was 104 % of control; the T/C (dose: 1.9 mg/kg/injection, schedule: Q03DX006 (ip), vehicle: saline) was 104 % of control; the T/C (dose: 2.2 mg/kg/injection, schedule: Q01DX001 (ip), vehicle: saline) is 101 % of control and 107 % of control; the T/C (dose: 2.2 mg/kg/injection, schedule: Q07DX003 (ip), vehicle: saline) is 105 % of control; the T/C (dose: 2.37 mg/kg/injection, schedule: Q01DX Z (ip), vehicle: carboxymethylcellulose (CMC)) was 114 % of control. The T/C runs as follows: (dose: 2.5 mg/kg/injection, schedule: Q01DX Z (im), vehicle: saline) 107 % of control; (dose: 2.5 mg/kg/injection, schedule: Q01DX Z (ip), vehicle: saline) 107 % of control; (dose: 2.5 mg/kg/injection, schedule: Q01DX Z (oral), vehicle: saline) 107 % of control; (dose: 3.0 mg/kg/injection, schedule: Q01DX Z (ip), vehicle: carboxymethylcellulose (CMC)) 113 % of control; (dose: 3.8 mg/kg/injection, schedule: Q03DX006 (ip), vehicle: saline) 105 % of control; (dose: 4.4 mg/kg/injection, schedule: Q01DX001 (ip), vehicle: saline) 102 % of control. For the same compound, the T/C is, setting by setting: (dose: 4.4 mg/kg/injection, schedule: Q07DX003 (ip), vehicle: saline) 105 % of control; (dose: 5.0 mg/kg/injection, schedule: Q01DX006 (iv), vehicle: saline) 100 % of control; (dose: 5.0 mg/kg/injection, schedule: Q01DX Z (oral), vehicle: saline) 100 % of control; (dose: 5.0 mg/kg/injection, schedule: Q01DX Z (sc), vehicle: saline) 120 % of control; (dose: 5.06 mg/kg/injection, schedule: Q01DX Z (ip), vehicle: carboxymethylcellulose (CMC)) 117 % of control; (dose: 6.0 mg/kg/injection, schedule: Q01DX Z (ip), vehicle: carboxymethylcellulose (CMC)) 158 % of control. Moreover, the T/C (dose: 6.33 mg/kg/injection, schedule: Q01DX Z (ip), vehicle: carboxymethylcellulose (CMC)) was 124 % of control; the T/C (dose: 7.5 mg/kg/injection, schedule: Q03DX006 (ip), vehicle: saline) is 119 % of control; the T/C (dose: 8.7 mg/kg/injection, schedule: Q01DX001 (ip), vehicle: saline) was 108 % of control; the T/C (dose: 8.7 mg/kg/injection, schedule: Q07DX003 (ip), vehicle: saline) was 105 % of control; the T/C (dose: 8.75 mg/kg/injection, schedule: Q01DX001 (ip), vehicle: saline) was 113 % of control and 123 % of control; the T/C (dose: 9.5 mg/kg/injection, schedule: Q01DX Z (ip), vehicle: carboxymethylcellulose (CMC)) was 157 % of control. In addition, the T/C by setting is: (dose: 10.0 mg/kg/injection, schedule: Q01DX006 (iv), vehicle: saline) 105 % of control; (dose: 10.0 mg/kg/injection, schedule: Q01DX Z (im), vehicle: saline) 160 % of control; (dose: 10.0 mg/kg/injection, schedule: Q01DX Z (ip), vehicle: saline) 195 % of control; (dose: 10.0 mg/kg/injection, schedule: Q01DX Z (oral), vehicle: saline) 115 % of control; (dose: 10.0 mg/kg/injection, schedule: Q#A X Z (ip), vehicle: saline) 110 % of control; (dose: 12.0 mg/kg/injection, schedule: Q01DX Z (ip), vehicle: carboxymethylcellulose (CMC)) 115 % of control. For the same compound, the T/C was 152 % of control (dose: 12.66 mg/kg/injection, schedule: Q01DX Z (ip), vehicle: carboxymethylcellulose (CMC)); 182 % of control (dose: 15.0 mg/kg/injection, schedule: Q03DX007 (ip), vehicle: saline); 117 % of control (dose: 20.0 mg/kg/injection, schedule: Q01DX006 (iv), vehicle: saline); 152 % of control (dose: 20.0 mg/kg/injection, schedule: Q01DX Z (im), vehicle: saline); 175 % of control (dose: 20.0 mg/kg/injection, schedule: Q01DX Z (sc), vehicle: saline); 94 % of control and 102 % of control (dose: 24.0 mg/kg/injection, schedule: Q01DX Z (ip), vehicle: carboxymethylcellulose (CMC)). For the same compound, the T/C (dose: 30.0 mg/kg/injection, schedule: Q03DX007 (ip), vehicle: saline) was 165 % of control; the T/C (dose: 38.0 mg/kg/injection, schedule: Q01DX Z (ip), vehicle: carboxymethylcellulose (CMC)) is 94 % of control; the T/C (dose: 40.0 mg/kg/injection, schedule: Q01DX Z (im), vehicle: saline) was 94 % of control; the T/C (dose: 40.0 mg/kg/injection, schedule: Q01DX Z (ip), vehicle: saline) is 103 % of control; the T/C (dose: 40.0 mg/kg/injection, schedule: Q01DX Z (oral), vehicle: saline) was 155 % of control; the T/C (dose: 70.0 mg/kg/injection, schedule: Q07DX001 (ip), vehicle: saline) is 115 % of control. Besides, the T/C (dose: 80.0 mg/kg/injection, schedule: Q01DX Z (sc), vehicle: saline) was 111 % of control and the T/C (dose: 280.0 mg/kg/injection, schedule: Q01DX001 (ip), vehicle: saline) is 105 % of control.
Turning to `c1ccc(C(c2ccccc2)c2ccc(C(c3ccccc3)(c3ccccc3)c3ccccc3)cc2)cc1`, the T/C (dose: 87.5 mg/kg/injection, schedule: Q04DX003 (ip), vehicle: Klucel (hydroxypropylcellulose) (HPC)) was 88 % of control.
Consider `Nc1cccc(C(=O)Nc2cccc(S(=O)(=O)F)c2)c1`, for which the T/C is, setting by setting: (dose: 100.0 mg/kg/injection, schedule: Q01DX001 (ip), vehicle: saline) 95 % of control; (dose: 200.0 mg/kg/injection, schedule: Q01DX001 (ip), vehicle: saline) 98 % of control; (dose: 400.0 mg/kg/injection, schedule: Q01DX001 (ip), vehicle: saline) 104 % of control.
As to `COc1ccc(NC(=O)ON(C)C)cc1`, the T/C runs as follows: (dose: 100.0 mg/kg/injection, schedule: Q04DX002 (ip), vehicle: DMSO) 111 % of control; (dose: 200.0 mg/kg/injection, schedule: Q04DX002 (ip), vehicle: DMSO) 108 % of control; (dose: 400.0 mg/kg/injection, schedule: Q04DX002 (ip), vehicle: DMSO) 101 % of control.
In the case of `CNc1nn[nH]n1`, the T/C (dose: 100.0 mg/kg/injection, schedule: Q04DX003 (ip), vehicle: saline) was 100 % of control; the T/C (dose: 200.0 mg/kg/injection, schedule: Q04DX003 (ip), vehicle: saline) was 93 % of control; the T/C (dose: 400.0 mg/kg/injection, schedule: Q04DX003 (ip), vehicle: saline) was 89 % of control.
Regarding `NC(=O)CNC(=O)CNC(=O)OCc1ccccc1` (Cbz-Gly-Gly-NH2), the T/C (dose: 100.0 mg/kg/injection, schedule: Q01DX009 (ip), vehicle: saline with Tween-80) is 100 % of control; the T/C (dose: 200.0 mg/kg/injection, schedule: Q01DX009 (ip), vehicle: saline with Tween-80) is 92 % of control; the T/C (dose: 400.0 mg/kg/injection, schedule: Q01DX009 (ip), vehicle: saline with Tween-80) was 92 % of control.
For `CCOC(=O)C(C(=O)CC)C(COC)C(=O)OC` (centres undefined), the T/C is 92 % of control (dose: 100.0 mg/kg/injection, schedule: Q01DX001 (ip), vehicle: other); 96 % of control (dose: 200.0 mg/kg/injection, schedule: Q01DX001 (ip), vehicle: other); 97 % of control (dose: 400.0 mg/kg/injection, schedule: Q01DX001 (ip), vehicle: other).
Regarding `CCC/C(=N\Nc1ccc([N+](=O)[O-])cc1[N+](=O)[O-])c1ccccc1`, the T/C by setting is: (dose: 100.0 mg/kg/injection, schedule: Q04DX003 (ip), vehicle: saline with Tween-80) 91 % of control; (dose: 400.0 mg/kg/injection, schedule: Q04DX003 (ip), vehicle: saline with Tween-80) 86 % of control.

(Values after PubChem BioAssay AID248 (DTP/NCI, 2004).)
